In patent US20060105013A1, “Osteopontin-coated surfaces and methods of use” (priority 2000, published 2006):

Assays:
[1] = test system: human osteoprogenitor cells; test: Peptide binding: attachment and spreading of human osteoprogenitor cells on coated plates; format: cell-based
Protocol: Example 11 analyzes the binding and cell spread activity of various peptides. The activities were measured in 24-well plates that were coated overnight at 4° C. with 10 μg/ml of the indicated ligand or peptide and then blocked for one hour at room temperature with 10 mg/ml BSA (Bovine Serum Albumin) in PBS (Phosphate Buffered Saline). To preserve the integrity of the adhesion receptors osteoprogenitor cells were harvested from sub-confluent cultures by non-enzymatic cell dissociation solution (Sigma, St. Louis, Mo.). Cells were washed twice with PBS and re-suspended at a concentration of 1×10^5 cells/ml of sterile Ca^2+- and Mg^2+-free PBS, supplemented with 0.1% BSA and 1 mM sodium pyruvate. 5×10^4 cells were incubated in each well and, after one hour at 37° C., the wells were washed three times with 0.5 ml PBS to remove non-adherent cells, fixed in 1% glutaraldehyde in 0.1 M cacodylate buffer (pH 7.4) at room temperature for one hour then stained with toluidine blue and hematoxylin. The total number of attached or spread cells in each well were counted microscopically using a Nikon Eclipse microscope equipped with a Sony digital camera. Total number of attached or spread cells were quantified using an Optima 5.2 image analysis system. Each experiment was done in triplicate and is reported as mean+/−standard error. To minimize variability inherent to cell attachment studies cells were scored as attached only when a defined nucleus observed accompanied by a transition from round to cuboidal cell morphology. Round cells that are loosely attached with no defined nucleus were scored as non-attached. These cells can be removed with repeated washes. The viability of the cells was measured before and after the termination of the experiments and only data from experiments with greater than 95% cell viability were used. […] Cell spreading was determined by membrane contour analysis and was scored according to increase in cell volume/surface area. Because of this change in cell volume/surface area, cell spreading is a measure of a change in cellular development. In some experiments, cell spreading was also assessed by the formation of stress fibers. The formation of stress fibers and/or changes in cell volume/surface area are each characteristics of cells undergoing differentiation. Each experiment was performed in quadruplicate wells and repeated three times.
5000 total human osteoprogenitor cells were plated on either uncoated plates or coated and incubated at 37° C. in a humidified atmosphere (95% air, 5% CO2). After 30 minutes, unattached cells were removed and the plates were washed with PBS. The total number of attached cells was determined as described in the materials and methods. In some experiments (labeled with an “#” in Table 8), antibodies ([…]) against various integrins were incubated with the cells for 15 minutes prior to plating.

HOS cells = test: Attachment of HOS cells to plastic, glass or chromocobalt surfaces coated with OPN; format: cell-based, human; details: 1 hour
Protocol: 500 cells were plated on coated plastic, glass or chromocobalt surfaces and incubated at 37° C. in a humidified atmosphere (95% air 5% CO2). Surfaces were coated with either human recombinant phosphorylated OPN (rhOPN) or unphosphorylated OPN. Fibronectin coated surfaces were used as a control. After 1 hour, unattached cells were removed and the surfaces were washed with PBS. The total number of attached cells was determined for the total cpm released for the surfaces after the cells were lysed with 10% TCA and solubilized in 5 ml scintillation fluid. All measurements were done in triplicates.

canine model [2] = test: Osseointegration of coated TPS dental implants in canine model (bone to implant contact, bone density); format: in vivo, dog; details: coating 200 μg/ml
Text: Canine models allow the use of implant designs and sizes commonly used in clinical applications.
Mandibular premolars and first molars were extracted bilaterally in a total of twelve dogs. After a healing period of three months, 6 implants TPS (ITI 4.1×8 mm) were placed in each mandibular quadrant. Test coatings of rOPN and mOC-1016 and non-coated TPS control wre used. A randomized distrubution of tests and controls were incorporated.
Large hounds were used in this Example. For all surgical procedures (extractions, implant placement, suture removal), after sedation with acepromazine (0.1 mg/kgS.C.), the animals were anesthetized using pentobarbitol (20 mg/kg I.V.). Antibiotics (bicillin 200,000 u I.M.) and ibuprofen for pain control (200 mg/dog/day P.O.) were given for extraction and implant placement surgeries. For sacrifice, an overdose of pentobarbitol (50 mg/kg I.V. after sedation with acepromazine 0.1 mg/kg S.C.) was administered.
The implant and it's surrounding tissue were dissected in block, fixed in 4% formaldehyde and imbedded in PMMA. The osseointegration of the implant was measured as percent of directly apposed bone versus total implant area by contour analysis using an image analysis system. The extent of new mineralized bone (in percent) in the area between the major and minor diameter of the implant was also determined.

CD44 (human) = CD44 (human) (UniProt P16070); test: cell-based or functional assay
αvβ3 integrin (human) = αvβ3 integrin (human) (UniProt P06756); test: cell-based or functional assay
αβ1 integrin (human) = αβ1 integrin (human) (UniProt P05556); test: cell-based or functional assay
canine model [3] = test: Safety assessment (serum chemistry, hematology, antibody) after coated implant treatment in dogs; format: in vivo, dog; details: dogs with coated implants; vs baseline
Text: The issue of safety was also addressed by assessing the serum chemistry, hematology and antibody results following treatment. […] Therefore, rOPN and OC-1016 are safe based upon these evaluations.

[4] = cells pre-incubated with Anti-CD44
[5] = cells pre-incubated with Anti-αvβ3
[6] = cells pre-incubated with Anti-αβ1

Sequence of UniProt P16070 (P16070 21-742): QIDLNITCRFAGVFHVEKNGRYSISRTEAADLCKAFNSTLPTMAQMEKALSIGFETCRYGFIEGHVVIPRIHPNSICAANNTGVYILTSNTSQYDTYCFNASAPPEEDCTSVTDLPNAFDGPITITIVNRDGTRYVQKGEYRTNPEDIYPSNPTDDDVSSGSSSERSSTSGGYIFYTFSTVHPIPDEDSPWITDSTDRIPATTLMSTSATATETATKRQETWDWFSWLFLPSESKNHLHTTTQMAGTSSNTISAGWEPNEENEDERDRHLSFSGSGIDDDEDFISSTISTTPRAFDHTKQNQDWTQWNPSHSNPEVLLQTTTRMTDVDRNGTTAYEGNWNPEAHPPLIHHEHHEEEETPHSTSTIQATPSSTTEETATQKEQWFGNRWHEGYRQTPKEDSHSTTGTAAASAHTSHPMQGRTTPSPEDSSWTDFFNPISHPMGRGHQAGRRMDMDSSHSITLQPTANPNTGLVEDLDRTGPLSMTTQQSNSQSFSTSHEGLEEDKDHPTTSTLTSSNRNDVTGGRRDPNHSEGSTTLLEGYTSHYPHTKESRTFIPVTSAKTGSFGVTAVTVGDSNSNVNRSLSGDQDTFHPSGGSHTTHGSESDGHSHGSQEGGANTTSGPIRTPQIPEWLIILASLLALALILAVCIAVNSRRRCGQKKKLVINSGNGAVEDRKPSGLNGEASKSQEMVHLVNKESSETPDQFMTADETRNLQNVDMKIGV
Sequence of UniProt P05556 (P05556 21-798): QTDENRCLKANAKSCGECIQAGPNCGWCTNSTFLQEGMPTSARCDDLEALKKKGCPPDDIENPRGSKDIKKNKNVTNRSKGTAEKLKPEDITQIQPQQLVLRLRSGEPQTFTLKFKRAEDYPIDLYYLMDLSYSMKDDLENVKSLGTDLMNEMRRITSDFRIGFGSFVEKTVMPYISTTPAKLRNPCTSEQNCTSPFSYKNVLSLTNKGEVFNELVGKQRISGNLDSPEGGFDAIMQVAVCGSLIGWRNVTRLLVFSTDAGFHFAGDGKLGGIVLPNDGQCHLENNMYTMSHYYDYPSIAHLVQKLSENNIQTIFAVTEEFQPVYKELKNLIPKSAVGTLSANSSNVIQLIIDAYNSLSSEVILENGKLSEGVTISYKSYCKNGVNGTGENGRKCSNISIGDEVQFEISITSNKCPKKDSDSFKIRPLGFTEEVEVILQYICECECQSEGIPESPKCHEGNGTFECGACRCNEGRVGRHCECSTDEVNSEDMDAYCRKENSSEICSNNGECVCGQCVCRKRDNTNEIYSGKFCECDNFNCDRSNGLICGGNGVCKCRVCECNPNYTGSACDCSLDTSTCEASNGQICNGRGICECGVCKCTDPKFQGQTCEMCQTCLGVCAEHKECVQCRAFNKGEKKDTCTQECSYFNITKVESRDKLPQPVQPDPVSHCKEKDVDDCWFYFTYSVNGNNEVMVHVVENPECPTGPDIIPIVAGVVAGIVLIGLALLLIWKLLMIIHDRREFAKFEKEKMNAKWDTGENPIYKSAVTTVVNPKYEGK
Sequence of UniProt P06756 (P06756 31-1048, chain 1 of 2): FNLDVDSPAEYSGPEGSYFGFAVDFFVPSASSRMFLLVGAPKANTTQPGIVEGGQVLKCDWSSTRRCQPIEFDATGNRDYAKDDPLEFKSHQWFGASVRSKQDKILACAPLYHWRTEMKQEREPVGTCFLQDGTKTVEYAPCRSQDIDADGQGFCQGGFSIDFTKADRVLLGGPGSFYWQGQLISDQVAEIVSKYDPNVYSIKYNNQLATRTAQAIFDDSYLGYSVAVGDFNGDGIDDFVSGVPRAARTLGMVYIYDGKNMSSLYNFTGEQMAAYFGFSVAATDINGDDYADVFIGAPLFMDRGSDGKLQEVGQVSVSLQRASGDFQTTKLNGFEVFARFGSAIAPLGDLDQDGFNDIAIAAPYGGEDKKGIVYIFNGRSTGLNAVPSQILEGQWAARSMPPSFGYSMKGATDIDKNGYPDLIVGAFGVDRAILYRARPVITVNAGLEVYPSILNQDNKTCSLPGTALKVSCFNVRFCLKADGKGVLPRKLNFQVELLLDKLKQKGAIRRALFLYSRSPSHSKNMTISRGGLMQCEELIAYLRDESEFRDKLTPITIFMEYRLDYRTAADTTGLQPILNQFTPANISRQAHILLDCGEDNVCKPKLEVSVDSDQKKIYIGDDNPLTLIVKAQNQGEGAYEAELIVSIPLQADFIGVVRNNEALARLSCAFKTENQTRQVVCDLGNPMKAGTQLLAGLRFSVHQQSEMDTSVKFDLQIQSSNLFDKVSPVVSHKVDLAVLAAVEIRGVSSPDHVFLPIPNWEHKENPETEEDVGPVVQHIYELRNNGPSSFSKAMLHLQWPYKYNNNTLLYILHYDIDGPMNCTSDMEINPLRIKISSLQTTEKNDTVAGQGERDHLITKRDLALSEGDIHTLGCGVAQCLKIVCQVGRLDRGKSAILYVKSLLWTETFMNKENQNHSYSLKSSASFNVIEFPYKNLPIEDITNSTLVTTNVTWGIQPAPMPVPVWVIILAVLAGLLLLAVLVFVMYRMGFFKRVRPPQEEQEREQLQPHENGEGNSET
Sequence of UniProt P06756 (P05106 27-788, chain 2 of 2, further chain): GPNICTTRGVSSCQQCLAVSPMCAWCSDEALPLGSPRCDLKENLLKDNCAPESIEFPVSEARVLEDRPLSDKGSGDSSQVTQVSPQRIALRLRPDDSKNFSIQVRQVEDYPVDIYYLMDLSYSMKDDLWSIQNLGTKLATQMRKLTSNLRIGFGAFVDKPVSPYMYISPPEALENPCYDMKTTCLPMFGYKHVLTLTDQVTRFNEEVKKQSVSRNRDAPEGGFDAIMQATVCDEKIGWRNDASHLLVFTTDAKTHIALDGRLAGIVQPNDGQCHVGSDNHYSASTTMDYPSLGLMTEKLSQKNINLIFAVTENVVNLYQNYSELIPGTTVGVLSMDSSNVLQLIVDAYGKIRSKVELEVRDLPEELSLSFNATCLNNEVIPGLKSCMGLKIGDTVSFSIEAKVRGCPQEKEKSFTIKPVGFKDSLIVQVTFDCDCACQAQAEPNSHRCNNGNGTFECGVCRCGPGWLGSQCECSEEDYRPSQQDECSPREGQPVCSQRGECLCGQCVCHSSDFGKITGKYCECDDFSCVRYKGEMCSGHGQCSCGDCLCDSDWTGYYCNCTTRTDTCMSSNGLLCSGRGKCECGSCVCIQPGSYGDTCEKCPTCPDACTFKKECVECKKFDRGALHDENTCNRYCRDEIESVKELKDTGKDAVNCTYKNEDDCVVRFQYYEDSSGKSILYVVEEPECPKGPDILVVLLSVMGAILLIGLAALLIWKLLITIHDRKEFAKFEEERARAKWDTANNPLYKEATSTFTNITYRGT

| Substance | % Spread ([1]; no antibody, coated plates) | % total attached cells ([1]; no antibody, coated plates) | % total attached (HOS cells; Plastic surface) | % total attached (HOS cells; chromocobalt (CrCo) surface) | % total attached (HOS cells; glass surface) | Mean Percent Bone Density (canine model [2]; 4 weeks) | Mean Percent Bone to Implant Contact (canine model [2]; 4 weeks) | Mean Percent Bone to Implant Contact (canine model [2]; 12 weeks) | also measured |
| --- | --- | --- | --- | --- | --- | --- | --- | --- | --- |
| DTFTPIVPTVDVPNGRFDSLAYGLKSKSKKFQ [SEQ ID NO: 13] | 100.0% | 91.1% |  |  |  |  |  |  |  |
| Fibronectin [reference compound] |  |  | 91.6% | 54.8% | 89.6% |  |  |  |  |
| OPN: Table 2: unphosphorylated OPN used as surface coating |  |  | 43.6% | 4% | 37.2% | 70.5% | 65.6% | 62.5% | Mean Percent Bone Density (canine model [2]; 12 weeks): 56.9% |
| Osteopontin (from UniProt P10451 17-314) (ligand) |  |  |  |  |  |  |  |  | % Spread (# Anti-CD44) (CD44 (human)): 46.4%; % total attached cells (# Anti-CD44) (CD44 (human)): 66%; % Spread (# Anti-αvβ3) (αvβ3 integrin (human)): 24.8%; % total attached cells (# Anti-αvβ3) (αvβ3 integrin (human)): 69.2%; % Spread (# Anti-αβ1) (αβ1 integrin (human)): 56.6%; % total attached cells (# Anti-αβ1) (αβ1 integrin (human)): 74.8% |
| Osteopontin: osteopontin used to coat plates in Table 8; form not specified | 78.4% | 78.4% |  |  |  |  |  |  | % Spread [1, 4]: 46.4%; % total attached cells [1, 4]: 66%; % Spread [1, 5]: 24.8%; % total attached cells [1, 5]: 69.2%; % Spread [1, 6]: 56.6%; % total attached cells [1, 6]: 74.8% |
| rOPN: Recombinant Osteopontin coated on TPS dental implants; printed as OPN in Tables 4-7 |  |  |  |  |  | 70.9% | 65.6% | 62.5% | serum chemistry, hematology and antibody results following treatment (canine model [3]): no clinically significant differences from baseline |
